Experimental data: patent US20240124439A1, “Pyrido[2,3-D]Imidazole Derivatives and Their Use As Inhibitors of ITK for the Treatment of Skin Disease” (Pfizer Inc., priority 2020, published 2024)

Legend:
[1] = target: IL-2-Inducible T-Cell Kinase (ITK) (Homo sapiens (Human), UniProt Q08881); assay: ITK enzyme assay (IL-2-inducible T-cell kinase activity); type: biochemical; details: geometric mean of count n
Outline: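 Full-length N-Flag/C-His human ITK, pre-incubated 30 min at RT with compound. Reaction in HEPES pH 7.5 buffer with MgCl2, glutathione, gelatin and Brij-35, started with BTK peptide substrate, 60 min at RT. EDTA stop, PT66/APC TR-FRET detection overnight; IC50 fitted by four-parameter logistic.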

[2] = system: activated CD4+ human T-cells (IL-2); assay: IL-2 inhibition in supernatants from activated CD4+ human T-cells (cisbio HTRF); type: cell-based; details: CD3/CD28-activated CD4+ human T cells, ImmunoCult stimulation 20 to 24 hrs, geometric mean of count n
Outline: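 Primary human CD4+ T cells activated with CD3/CD28 for 3 days and expanded to 7-9 days total, plated at 30,000 cells/well. Cells preincubated 15 min with compound, then stimulated with ImmunoCult (1:50 final) for 20-24 h at 37° C. Supernatant IL-2 measured by HTRF (665/615 nm); IC50 from four-parameter logistic fit.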

[3] = target: Tropomyosin Receptor Kinase A (TRKA), NTRK1 enzyme (Homo sapiens (Human), UniProt P04629); assay: TRKA (NTRK1) ThermoFisher Z'-LYTE enzyme assay; type: biochemical; details: test compound 1 uM, ATP 1 mM; arithmetic mean of count n
Chain of Tropomyosin Receptor Kinase A (TRKA), NTRK1 enzyme (P04629 33-796): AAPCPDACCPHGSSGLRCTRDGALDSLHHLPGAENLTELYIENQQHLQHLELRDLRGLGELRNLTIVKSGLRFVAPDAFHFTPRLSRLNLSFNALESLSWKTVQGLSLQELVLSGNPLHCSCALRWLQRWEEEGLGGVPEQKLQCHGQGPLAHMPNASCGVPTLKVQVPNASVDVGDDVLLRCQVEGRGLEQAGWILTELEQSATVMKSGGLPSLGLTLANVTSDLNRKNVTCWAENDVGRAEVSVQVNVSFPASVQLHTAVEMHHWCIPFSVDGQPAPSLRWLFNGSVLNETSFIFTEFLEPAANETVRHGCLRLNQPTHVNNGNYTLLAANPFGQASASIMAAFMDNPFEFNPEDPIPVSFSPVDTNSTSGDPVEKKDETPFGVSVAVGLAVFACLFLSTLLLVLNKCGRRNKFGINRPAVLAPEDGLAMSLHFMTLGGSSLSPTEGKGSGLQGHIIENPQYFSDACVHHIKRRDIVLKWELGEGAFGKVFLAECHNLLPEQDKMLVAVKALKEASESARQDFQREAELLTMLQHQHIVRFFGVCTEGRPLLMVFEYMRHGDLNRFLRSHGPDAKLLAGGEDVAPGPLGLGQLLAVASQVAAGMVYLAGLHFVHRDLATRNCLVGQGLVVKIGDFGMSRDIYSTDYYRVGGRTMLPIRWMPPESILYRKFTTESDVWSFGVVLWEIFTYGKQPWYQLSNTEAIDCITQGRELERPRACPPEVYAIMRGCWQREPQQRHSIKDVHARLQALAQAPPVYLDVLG
Protocol: TRKA, also known as neurotrophic tyrosine kinase receptor type 1 (NTKR1) activity was determined by measuring the effect of a test compound on the activity against the NTRK1 enzyme using the ThermoFisher Z′-LYTE Assay fluorescence-based coupled enzyme format (www.thermofisher.com/selectscreen). Test compounds were screened at a fixed concentration of 1 uM and the % inhibition was determined compared to controls at a fixed ATP concentration of 1 mM. The resulting effect value for the tested compound was compared to the assay controls to determine the % inhibition (%).

Chain of IL-2-Inducible T-Cell Kinase (ITK) (Q08881 whole entry): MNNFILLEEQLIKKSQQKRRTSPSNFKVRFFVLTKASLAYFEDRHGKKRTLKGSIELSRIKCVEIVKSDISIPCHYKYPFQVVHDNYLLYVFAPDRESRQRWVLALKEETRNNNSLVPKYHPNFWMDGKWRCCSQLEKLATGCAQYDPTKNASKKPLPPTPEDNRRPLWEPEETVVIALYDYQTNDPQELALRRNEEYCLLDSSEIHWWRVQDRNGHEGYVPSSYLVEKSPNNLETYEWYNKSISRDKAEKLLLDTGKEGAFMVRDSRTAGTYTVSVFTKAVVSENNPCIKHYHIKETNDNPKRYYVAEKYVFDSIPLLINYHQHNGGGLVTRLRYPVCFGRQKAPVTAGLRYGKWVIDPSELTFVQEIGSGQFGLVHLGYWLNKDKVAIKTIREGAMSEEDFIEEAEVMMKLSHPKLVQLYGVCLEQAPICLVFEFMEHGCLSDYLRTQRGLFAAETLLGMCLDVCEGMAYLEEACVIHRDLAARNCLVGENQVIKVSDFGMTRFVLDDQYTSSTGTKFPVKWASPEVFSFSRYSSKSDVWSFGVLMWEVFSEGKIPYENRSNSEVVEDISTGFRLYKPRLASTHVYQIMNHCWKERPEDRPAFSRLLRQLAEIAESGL

Structure (SMILES)	IC50 [1] [nM]	IC50 ([2]; T-cell) [nM]	inhibition at 1 µM [3] [%]	IC50 [2] [nM]	TRKA % inhibition [3] [%]
C[C@@H](C(=O)N(C)c1cnc2[nH]c(-c3n[nH]c4c3C[C@@H]3C[C@]3(C)C4)nc2c1)C1CCOCC1 [Example 1, (R)-N-Methyl-N-(2-((4aS,5aR)-5a-methyl-1,4,4a,5,5a,6-hexahydrocyclopropa[f]indazol-3-yl)-3H-imidazo[4,5-b]pyridin-6-yl)-2-(tetrahydro-2H-pyran-4-yl)propenamide]	9	67	96	–	–
CN(C(=O)C(F)(F)C1CCOCC1)c1cnc2[nH]c(-c3n[nH]c4c3C[C@@H]3C[C@]3(C)C4)nc2c1 [Example 2, 2,2-Difluoro-N-methyl-N-(2-((4aS,5aR)-5a-methyl-1,4,4a,5,5a,6-hexahydrocyclopropa[f]indazol-3-yl)-3H-imidazo[4,5-b]pyridin-6-yl)-2-(tetrahydro-2H-pyran-4-yl)acetamide]	14	92	108	–	–
C[C@H](C(=O)N(C)c1cnc2[nH]c(-c3n[nH]c4c3C[C@@H]3C[C@]3(C)C4)nc2c1)C1CCOCC1 [Example 10, (S)-N-Methyl-N-(2-((4aS,5aR)-5a-methyl-1,4,4a,5,5a,6-hexahydrocyclopropa[f]indazol-3-yl)-3H-imidazo[4,5-b]pyridin-6-yl)-2-(tetrahydro-2H-pyran-4-yl)propanamide]	91	338	98	–	–
C[C@@H](C(=O)N(C)c1cnc2[nH]c(-c3n[nH]c4c3CCC(C)(C)C4)nc2c1)N1CCOCC1 [Example 14, (S)-N-(2-(6,6-Dimethyl-4,5,6,7-tetrahydro-1H-indazol-3-yl)-3H-imidazo[4,5-b]pyridin-6-yl)-N-methyl-2-morpholinopropanamide]	–	157	92	–	–
C[C@@H](C(=O)N(C)c1cc2[nH]c(-c3n[nH]c4c3C[C@@H]3C[C@]3(C)C4)nc2nc1F)N1CCOCC1 [Example 17, (S)-N-(5-Fluoro-2-((4aS,5aR)-5a-methyl-1,4,4a,5,5a,6-hexahydrocyclopropa[f]indazol-3-yl)-1H-imidazo[4,5-b]pyridin-6-yl)-N-methyl-2-morpholinopropanamide]	41	307	96	–	–
CCN(C(=O)[C@H](C)C1CCOCC1)c1cnc2[nH]c(-c3n[nH]c4c3CCC(C)(C)C4)nc2c1 [Example 18]	–	162	97	–	–
CCN(C(=O)[C@H](C)C1CCOCC1)c1cnc2[nH]c(-c3n[nH]c4c3C[C@@H]3C[C@]3(C)C4)nc2c1 [Example 19, (R)-N-Ethyl-N-(2-((4aS,5aR)-5a-methyl-1,4,4a,5,5a,6-hexahydrocyclopropa[f]indazol-3-yl)-3H-imidazo[4,5-b]pyridin-6-yl)-2-(tetrahydro-2H-pyran-4-yl)propenamide]	17	–	–	153	98
CCN(C(=O)[C@@H](C)N1CCOCC1)c1cnc2[nH]c(-c3n[nH]c4c3CCC(C)(C)C4)nc2c1 [Example 22, (R)-N-(2-(6,6-Dimethyl-4,5,6,7-tetrahydro-1H-indazol-3-yl)-3H-imidazo[4,5-b]pyridin-6-yl)-N-ethyl-2-morpholinopropanamide]	85	471	94	–	–
C[C@@H](C(=O)N(C)c1cnc2[nH]c(-c3n[nH]c4c3C[C@@H]3C(F)(F)[C@]3(C)C4)nc2c1)N1CCOCC1 [Example 23, (S)-N-(2-((4aS,5aR)-5,5-Difluoro-5a-methyl-1,4,4a,5,5a,6-hexahydrocyclopropa[f]indazol-3-yl)-3H-imidazo[4,5-b]pyridin-6-yl)-N-methyl-2-morpholinopropanamide]	1330	1850	54	–	–
C[C@@H](C(=O)N(C)c1cnc2[nH]c(-c3n[nH]c4c3C[C@H]3C(F)(F)[C@@]3(C)C4)nc2c1)N1CCOCC1 [Example 24, (S)-N-(2-((4aR,5aS)-5,5-Difluoro-5a-methyl-1,4,4a,5,5a,6-hexahydrocyclopropa[f]indazol-3-yl)-3H-imidazo[4,5-b]pyridin-6-yl)-N-methyl-2-morpholinopropanamide]	3	34	95	–	–
C[C@H](C(=O)N(C)c1cnc2[nH]c(-c3n[nH]c4c3C[C@@H]3C[C@]3(C)C4)nc2c1)N1CCOCC1 [Example 26, (R)-N-Methyl-N-(2-((4aS,5aR)-5a-methyl-1,4,4a,5,5a,6-hexahydrocyclopropa[f]indazol-3-yl)-3H-imidazo[4,5-b]pyridin-6-yl)-2-morpholinopropanamide]	–	631	91	–	–
C[C@@H](C(=O)N(C)c1cnc2[nH]c(-c3n[nH]c4c3C[C@@H]3C[C@]3(C)C4)nc2c1)N1CCOCC1 [Example 28, (S)-N-Methyl-N-(2-((4aS,5aR)-5a-methyl-1,4,4a,5,5a,6-hexahydrocyclopropa[f]indazol-3-yl)-3H-imidazo[4,5-b]pyridin-6-yl)-2-morpholinopropanamide]	23	121	91	–	–
C[C@@H](C(=O)N(C)c1cnc2[nH]c(-c3n[nH]c4c3C[C@H]3C[C@@]3(C)C4)nc2c1)N1CCOCC1 [Example 29, (2S)-N-Methyl-N-(2-(5a-methyl-1,4,4a,5,5a,6-hexahydrocyclopropa[f]indazol-3-yl)-3H-imidazo[4,5-b]pyridin-6-yl)-2-morpholinopropanamide]	2850	2530	69	–	–
CCN(C(=O)[C@H](C)N1CCOCC1)c1cnc2[nH]c(-c3n[nH]c4c3C[C@@H]3C(F)(F)[C@]3(C)C4)nc2c1 [Example 30, (S)-N-(2-((4aS,5aR)-5,5-Difluoro-5a-methyl-1,4,4a,5,5a,6-hexahydrocyclopropa[f]indazol-3-yl)-3H-imidazo[4,5-b]pyridin-6-yl)-N-ethyl-2-morpholinopropanamide]	8	79	97	–	–
C[C@@H](C(=O)N(CCO)c1cnc2[nH]c(-c3n[nH]c4c3C[C@@H]3C[C@]3(C)C4)nc2c1)C1CCOCC1 [Example 31, (R)-N-(2-Hydroxyethyl)-N-(2-((4aS,5aR)-5a-methyl-1,4,4a,5,5a,6-hexahydrocyclopropa[f]indazol-3-yl)-3H-imidazo[4,5-b]pyridin-6-yl)-2-(tetrahydro-2H-pyran-4-yl)propenamide]	25	415	95	–	–
C[C@@H](C(=O)N(C)c1cnc2[nH]c(-c3n[nH]c4c3CCC(C)(C)C4)nc2c1)C1CCOCC1 [Example 32, (R)-N-(2-(6,6-Dimethyl-4,5,6,7-tetrahydro-1H-indazol-3-yl)-3H-imidazo[4,5-b]pyridin-6-yl)-N-methyl-2-(tetrahydro-2H-pyran-4-yl)propenamide]	17	167	94	–	–
C[C@H](C(=O)N(C)c1cnc2[nH]c(-c3n[nH]c4c3C[C@@H]3C[C@]3(C)C4)nc2c1)N1C[C@H]2CC[C@@H]1CO2 [Example 115]	142	415	–	–	–
C[C@@H](C(=O)N(C)c1cnc2[nH]c(-c3n[nH]c4c3C[C@@H]3C[C@]3(C)C4)nc2c1)N1C[C@H]2CC[C@@H]1CO2 [Example 116, (S)-2-((1R,4R)-2-Oxa-5-azabicyclo[2.2.2]octan-5-yl)-N-methyl-N-(2-((4aS,5aR)-5a-methyl-1,4,4a,5,5a,6-hexahydrocyclopropa[f]indazol-3-yl)-3H-imidazo[4,5-b]pyridin-6-yl)propanamide]	18	172	–	–	–
C[C@H](C(=O)N(C)c1cnc2[nH]c(-c3n[nH]c4c3C[C@@H]3C[C@]3(C)C4)nc2c1)N1CCCCC1 [Example 117, (R)-N-Methyl-N-(2-((4aS,5aR)-5a-methyl-1,4,4a,5,5a,6-hexahydrocyclopropa[f]indazol-3-yl)-3H-imidazo[4,5-b]pyridin-6-yl)-2-(piperidin-1-yl)propanamide]	275	769	–	–	–
C[C@@H](C(=O)N(C)c1cnc2[nH]c(-c3n[nH]c4c3C[C@@H]3C[C@]3(C)C4)nc2c1)N1CCCCC1 [Example 118, (S)-N-Methyl-N-(2-((4aS,5aR)-5a-methyl-1,4,4a,5,5a,6-hexahydrocyclopropa[f]indazol-3-yl)-3H-imidazo[4,5-b]pyridin-6-yl)-2-(piperidin-1-yl)propanamide]	243	727	–	–	–
CC(C(=O)N(C)c1cnc2[nH]c(-c3n[nH]c4c3C[C@@H]3C[C@]3(C)C4)nc2c1)N1C2COCC1C2 (stereo partly drawn) [Example 119, 2-(3-Oxa-6-azabicyclo[3.1.1]heptan-6-yl)-N-methyl-N-(2-((4aS,5aR)-5a-methyl-1,4,4a,5,5a,6-hexahydrocyclopropa[f]indazol-3-yl)-3H-imidazo[4,5-b]pyridin-6-yl)propanamide]	470	4210	–	–	–
CC(C(=O)N(C)c1cnc2[nH]c(-c3n[nH]c4c3C[C@@H]3C[C@]3(C)C4)nc2c1)N1CCCCC1 (stereo partly drawn) [Example 120, N-Methyl-N-(2-((4aS,5aR)-5a-methyl-1,4,4a,5,5a,6-hexahydrocyclopropa[f]indazol-3-yl)-3H-imidazo[4,5-b]pyridin-6-yl)-2]	788	2340	–	–	–
